Data from patent publication US4789661A, “De-(acetylglucosaminyl)-di(dehydro)-deoxy teicoplanin derivatives” (Gruppo Lepetit S.p.A., priority 1985, dated 1988).
Values after ≈ are worked out from the molar mass of the structure shown.

What was measured:
S. aureus ATCC 6538 = experiment: In vitro antimicrobial activity (MIC), standard dilution test; assay type: cell-based; settings: inoculum about 10^4 CFU/ml, 18-24 h at 37° C.
Method: (§1) Isosensitest broth (Oxoid) and Todd-Hewitt broth (Difco) are used for growing staphylococci and streptococci, respectively. Broth cultures are diluted so that the final inoculum is about 10^4 colony forming units/ml (CFU/ml).

E. Coli SKF 12140 = experiment: as above; assay type: cell-based; settings: inoculum about 10^4 CFU/ml, 18-24 h at 37° C.
Method: as §1

S. aureus TOUR = experiment: as above; assay type: cell-based; settings: inoculum about 10^4 CFU/ml, 18-24 h at 37° C.
Method: as §1

S. pneumoniae UC 41 = experiment: as above; assay type: cell-based; settings: inoculum about 10^4 CFU/ml, 18-24 h at 37° C.
Method: as §1

S. faecalis ATCC 7080 = experiment: as above; assay type: cell-based; settings: inoculum about 10^4 CFU/ml, 18-24 h at 37° C.
Method: as §1

[1] = test system: S. epidermidis ATCC 12228; experiment: as above; assay type: cell-based; settings: inoculum about 10^4 CFU/ml, 18-24 h at 37° C.
Method: as §1

S. pyogenes C 203 = experiment: as above; assay type: cell-based; settings: inoculum about 10^4 CFU/ml, 18-24 h at 37° C.
Method: as §1

P. vulgaris ATCC 881 = experiment: as above; assay type: cell-based; settings: inoculum about 10^4 CFU/ml, 18-24 h at 37° C.
Method: as §1

[2] = Acid-base titration (pKMCS) in 2-methoxyethanol/water 4:1; assay type: physicochemical; settings: potentiometric; 2-methoxyethanol (Methyl Cellosolve)/water 4:1 (v/v)
Method: Acid-base titration (pKMCS) were carried out in 2-methoxyethanol (Methyl Cellosolve®) water 4:1 (v/v) solution, with 0.01 NaOH after addition of suitable amounts of 0.01N hcl. The equivalent weights (EW) given are corrected for the solvent content and the inorganic residue.

[3] = test system: experimental infection in mice; experiment: Experimental infection in mice (V. Arioli et al.); assay type: in vivo
Source text: In addition to their antibacterial activity in vitro, the compounds of the invention show also antibacterial activity in in vivo experimetns.

S. hominis L 1070 = experiment: MIC in microtiter against coagulase-negative staphylococci, clinical isolates; assay type: cell-based; settings: S. hominis L 1070 clinical isolate, Iso-sensitest broth, approximately 10^4 CFU/ml
Method: (§2) In a representative experiment, compound III i.e. (35,52-di-dehydro-34-deoxy-teicoplanin aglycon) was tested against some clinically isolated coagulasenegative staphylococi. The results of the test, in comparison with teicoplanin, are reported below in Table VII, The MIC were determined in microtiter using Iso-sensitest broth (Oxoid Co.) and approximately 10^4 CFU/ml as the inoculum.

[4] = test system: S. simulans L 785 (methicillin-resistant); experiment: as above; assay type: cell-based; settings: S. simulans L 785, methicillin-resistant clinical isolate, Iso-sensitest broth, approximately 10^4 CFU/ml
Method: as §2

[5] = test system: S. Simulans L 1142 (methicillin-resistant); experiment: as above; assay type: cell-based; settings: S. Simulans L 1142, methicillin-resistant clinical isolate, Iso-sensitest broth, approximately 10^4 CFU/ml
Method: as §2

S. warneri L 1375 = experiment: as above; assay type: cell-based; settings: S. warneri L 1375 clinical isolate, Iso-sensitest broth, approximately 10^4 CFU/ml
Method: as §2

[6] = test system: S. haemoliticus L 1520 (methicillin-resistant); experiment: as above; assay type: cell-based; settings: S. haemoliticus L 1520, methicillin-resistant clinical isolate, Iso-sensitest broth, approximately 10^4 CFU/ml
Method: as §2

S. epidermidis L 1378 = experiment: as above; assay type: cell-based; settings: S. epidermidis L 1378 clinical isolate, Iso-sensitest broth, approximately 10^4 CFU/ml
Method: as §2

Row | Compound | MIC (S. aureus ATCC 6538) | MIC (E. Coli SKF 12140) | MIC (S. aureus TOUR) | MIC (S. pneumoniae UC 41) | MIC (S. faecalis ATCC 7080) | MIC [1] | MIC (S. pyogenes C 203) | MIC (P. vulgaris ATCC 881) | pKmcs (COOH) [2] | pKmcs (NH2) [2] | ED50 [3] | MIC (S. hominis L 1070) | MIC [4] | MIC [5] | MIC (S. warneri L 1375) | MIC [6] | MIC (S. epidermidis L 1378)
1 | 42-α-D-mannosyl-56-N-acyl-β-D-glucosaminyl-35,52-didehydro-34-d eoxy-teicoplanin aglycon [Compound I] | 0.5 µg/mL | > 128 µg/mL | 0.5 µg/mL | 0.06 µg/mL | 1 µg/mL | 0.25 µg/mL | 0.06 µg/mL | > 128 µg/mL | 5.0 | 6.9 | 0.35 mg/kg | – | – | – | – | – | –
2 | NC1C(=O)NC2Cc3ccc(c(Cl)c3)Oc3cc4cc(c3O)Oc3ccc(cc3Cl)C=C3NC(=O)C(NC(=O)C4NC(=O)C(NC2=O)c2cc(O)cc(c2)Oc2cc1ccc2O)c1ccc(O)c(c1)-c1c(O)cc(O)cc1C(C(=O)O)NC3=O (single isomer, unassigned) [Compound IV, (36,37-cis-51,52-trans)-34,35-didehydro-34-deoxy-teicoplanin-aglycon] | 1 µg/mL (≈ 0.847 µM) | > 128 µg/mL | 1 µg/mL (≈ 0.847 µM) | 4 µg/mL (≈ 3.39 µM) | 8 µg/mL (≈ 6.77 µM) | 0.12 µg/mL (≈ 0.102 µM) | 4 µg/mL (≈ 3.39 µM) | 128 µg/mL (≈ 108 µM) | 4.8 | 7.1 | – | – | – | – | – | – | –
3 | NC1C(=O)NC2Cc3ccc(c(Cl)c3)Oc3cc4cc(c3O)Oc3ccc(cc3Cl)C=C3NC(=O)C(NC(=O)C4NC(=O)C(NC2=O)c2cc(O)cc(c2)Oc2cc1ccc2O)c1ccc(O)c(c1)-c1c(O)cc(O)cc1C(C(=O)O)NC3=O (single isomer, unassigned) [Compound V, (36,37-trans-51,52-trans)-34,35-didehydro-34-deoxy-teicoplanin-aglycon] | 2 µg/mL (≈ 1.69 µM) | > 128 µg/mL | 4 µg/mL (≈ 3.39 µM) | 8 µg/mL (≈ 6.77 µM) | 16 µg/mL (≈ 13.5 µM) | 0.4 µg/mL (≈ 0.339 µM) | 8 µg/mL (≈ 6.77 µM) | > 128 µg/mL | – | – | – | – | – | – | – | – | –
4 | NC1C(=O)NC2Cc3ccc(c(Cl)c3)Oc3cc4cc(c3O)Oc3ccc(cc3Cl)CC3=NC(=O)C(NC(=O)C4NC(=O)C(NC2=O)c2cc(O)cc(c2)Oc2cc1ccc2O)c1ccc(O)c(c1)-c1c(O[C@H]2O[C@H](CO)[C@@H](O)[C@H](O)[C@@H]2O)cc(O)cc1C(C(=O)O)NC3=O (stereo partly drawn) [Compound II, 42-α-D-mannosyl-35,52-didehydro-34-deoxy-teicoplanin aglycon] | 0.25 µg/mL (≈ 0.186 µM) | > 128 µg/mL | 0.25 µg/mL (≈ 0.186 µM) | 2 µg/mL (≈ 1.49 µM) | 1 µg/mL (≈ 0.745 µM) | 0.5 µg/mL (≈ 0.372 µM) | 2 µg/mL (≈ 1.49 µM) | > 128 µg/mL | 4.8 | 6.9 | 5.8 mg/kg | – | – | – | – | – | –
5 | NC1C(=O)NC2Cc3ccc(c(Cl)c3)Oc3cc4cc(c3O)Oc3ccc(cc3Cl)CC3=NC(=O)C(NC(=O)C4NC(=O)C(NC2=O)c2cc(O)cc(c2)Oc2cc1ccc2O)c1ccc(O)c(c1)-c1c(O)cc(O)cc1C(C(=O)O)NC3=O (centres unmarked) [Compound III, 35,52-didehydro-34-deoxy-teicoplanin aglycon] | 0.25 µg/mL (≈ 0.212 µM) | > 128 µg/mL | 0.25 µg/mL (≈ 0.212 µM) | 1 µg/mL (≈ 0.847 µM) | 1 µg/mL (≈ 0.847 µM) | 0.12 µg/mL (≈ 0.102 µM) | 1 µg/mL (≈ 0.847 µM) | > 128 µg/mL | – | – | 5 mg/kg | 0.125 µg/mL (≈ 0.106 µM) | 0.125 µg/mL (≈ 0.106 µM) | 0.125 µg/mL (≈ 0.106 µM) | 1 µg/mL (≈ 0.847 µM) | 0.5 µg/mL (≈ 0.423 µM) | 0.125 µg/mL (≈ 0.106 µM)
6 | N[C@H]1C(=O)N[C@@H]2Cc3ccc(c(Cl)c3)Oc3cc4cc(c3O)Oc3ccc(cc3Cl)[C@@H](O)[C@@H]3NC(=O)[C@H](NC(=O)[C@@H]4NC(=O)[C@@H](NC2=O)c2cc(O)cc(c2)Oc2cc1ccc2O)c1ccc(O)c(c1)-c1c(O)cc(O)cc1[C@@H](C(=O)O)NC3=O [deglucoteicoplanin, reference compound] | – | – | – | – | – | – | – | – | 4.9 | 6.9 | – | – | – | – | – | – | –
7 | teicoplanin A2 [reference compound] | – | – | – | – | – | – | – | – | 5.0 | 7.1 | – | – | – | – | – | – | –
8 | teicoplanin [reference compound] | – | – | – | – | – | – | – | – | – | – | – | 0.25 µg/mL | 0.25 µg/mL | 0.125 µg/mL | 2 µg/mL | 4 µg/mL | 0.5 µg/mL
